Tests used:
ΔF508-CFTR [1] = molecular target: T1, ΔF508-CFTR (Homo sapiens, UniProt P13569, DEL508-508); experiment: CFTR cell surface levels using HRP-tagged ΔF508-CFTR expressing CFBE cells, in the presence of a co-corrector; assay type: cell-based; settings: HRP-tagged ΔF508-CFTR expressing CFBE cells, in the presence of 3 μM co-corrector; for EC50: read-out: EC50
T1 construct: host or cells: CFBE41o-, doxycycline-inducible
Outline: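 Cells were seeded with 0.5 μg/mL doxycycline and held 68 h at 37 °C. Test compounds plus 3 μM co-corrector (final 0.1% DMSO) were then added for 20 h at 33 °C. Washed cells received HRP substrate, and luminescence was normalized between DMSO and 3 μM co-corrector controls.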

ΔF508-CFTR [2] = molecular target: T1, ΔF508-CFTR; experiment: CFTR cell surface levels using HRP-tagged ΔF508-CFTR expressing CFBE cells, intrinsic corrector capacity; assay type: cell-based; settings: for EC50: read-out: EC50
Outline: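 Here the cells express ΔF508-CFTR with horseradish peroxidase inserted in extracellular loop 4, so only rescued channel at the surface gives luminescent signal. Compounds act on their own, 20 h at the reduced temperature of 33 °C; values are percent activity relative to DMSO and a 3 μM corrector.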

[3] = HRP-tagged ΔF508-CFTR CFBE cells, compound alone (intrinsic corrector capacity), 20 hours at 33° C.
[4] = HRP-tagged ΔF508-CFTR expressing CFBE cells, intrinsic corrector capacity (no co-corrector), 33° C., 20 hours
[5] = HRP-tagged ΔF508-CFTR CFBE41o- cells, compounds alone (intrinsic corrector capacity), 20 hours at 33° C., positive control 3 μM corrector
[6] = HRP-tagged ΔF508-CFTR CFBE41o- cells, compounds alone (intrinsic corrector capacity), 20 hours at 33° C.

T1 sequence (P13569 with tags, fused parts or gaps DEL508-508): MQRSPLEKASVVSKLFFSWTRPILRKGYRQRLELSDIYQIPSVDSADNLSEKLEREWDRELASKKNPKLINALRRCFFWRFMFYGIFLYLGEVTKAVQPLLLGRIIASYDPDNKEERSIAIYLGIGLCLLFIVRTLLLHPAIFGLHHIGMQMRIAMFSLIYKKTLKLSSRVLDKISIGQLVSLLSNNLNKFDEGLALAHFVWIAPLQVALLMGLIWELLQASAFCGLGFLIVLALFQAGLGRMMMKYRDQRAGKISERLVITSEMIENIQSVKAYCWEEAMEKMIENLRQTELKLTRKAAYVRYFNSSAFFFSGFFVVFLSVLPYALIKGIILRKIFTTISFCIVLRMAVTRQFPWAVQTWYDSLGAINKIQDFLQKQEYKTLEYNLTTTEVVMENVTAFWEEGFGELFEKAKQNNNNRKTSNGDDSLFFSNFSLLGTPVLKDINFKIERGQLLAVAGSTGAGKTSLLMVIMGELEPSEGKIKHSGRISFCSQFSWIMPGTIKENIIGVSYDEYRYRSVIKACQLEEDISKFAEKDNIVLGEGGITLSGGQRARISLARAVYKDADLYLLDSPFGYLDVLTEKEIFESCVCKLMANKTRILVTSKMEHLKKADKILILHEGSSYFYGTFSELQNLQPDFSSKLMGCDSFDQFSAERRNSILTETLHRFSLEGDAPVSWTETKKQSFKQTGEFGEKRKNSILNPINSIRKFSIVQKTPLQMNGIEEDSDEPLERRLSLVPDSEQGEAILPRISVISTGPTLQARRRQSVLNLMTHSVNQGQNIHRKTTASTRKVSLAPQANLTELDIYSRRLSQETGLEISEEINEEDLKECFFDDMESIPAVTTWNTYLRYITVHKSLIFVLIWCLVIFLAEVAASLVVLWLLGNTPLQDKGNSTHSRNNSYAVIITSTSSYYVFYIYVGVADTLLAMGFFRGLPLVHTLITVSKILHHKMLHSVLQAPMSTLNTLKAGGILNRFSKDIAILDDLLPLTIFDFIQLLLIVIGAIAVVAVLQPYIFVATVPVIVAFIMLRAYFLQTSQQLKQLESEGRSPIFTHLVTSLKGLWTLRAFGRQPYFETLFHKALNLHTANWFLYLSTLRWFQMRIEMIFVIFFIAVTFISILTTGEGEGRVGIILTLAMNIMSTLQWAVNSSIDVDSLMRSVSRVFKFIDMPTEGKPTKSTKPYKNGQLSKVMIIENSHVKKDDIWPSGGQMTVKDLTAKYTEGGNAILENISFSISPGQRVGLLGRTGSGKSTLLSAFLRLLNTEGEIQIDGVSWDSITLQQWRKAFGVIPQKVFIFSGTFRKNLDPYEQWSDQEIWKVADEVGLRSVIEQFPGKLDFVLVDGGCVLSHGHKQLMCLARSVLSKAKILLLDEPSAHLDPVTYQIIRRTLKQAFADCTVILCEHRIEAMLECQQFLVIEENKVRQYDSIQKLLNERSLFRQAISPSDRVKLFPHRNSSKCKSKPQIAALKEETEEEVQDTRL

Row | Compound | % Activation (ΔF508-CFTR [1]) | EC50 (ΔF508-CFTR [1]) | % Activation (ΔF508-CFTR [2]; [3]) | EC50 (ΔF508-CFTR [2]; [3]) | % Activation (ΔF508-CFTR [2]; [4]) | EC50 (ΔF508-CFTR [2]; [4]) | % Activation (ΔF508-CFTR [2]; [5]) | EC50 (ΔF508-CFTR [2]; [6])
1 | CC(F)(F)c1cccc(-n2nc(C3CCC3)c3c(N4CCC(N5CCOCC5)CC4)cc(C(=O)O)nc32)c1 [compound 915] | 587.95% | 50.2 nM | 386.2% | 394 nM |  |  |  | 
2 | CC1CCN(CCC2CCN(c3cc(C(=O)O)nc4c3c(C3CCC3)nn4-c3ccccc3)CC2)CC1 [compound 687, 3-cyclobutyl-4-{4-[2-(4-methylpiperidin-1-yl)ethyl]piperidin-1-yl}-1-phenyl-1H-pyrazolo[3,4-b]pyridine-6-carboxylic acid] | 454% | 89.7 nM |  |  | 264.95% | 171 nM |  | 
3 | CC(C)c1nn(-c2ccc(F)cc2)c2nc(C(=O)O)cc(N3CCC(N4CCN(C5CC5)CC4)CC3)c12 [compound 754, 4-[4-(4-cyclopropylpiperazin-1-yl)piperidin-1-yl]-1-(4-fluorophenyl)-3-(propan-2-yl)-1H-pyrazolo[3,4-b]pyridine-6-carboxylic acid] | 467.3% | 153 nM |  |  | 254.1% | 385 nM |  | 
4 | O=C(O)c1cc(N2CCC(N3CCC(O)CC3)CC2)c2c(C3CCC3)nn(-c3ccc(F)cc3)c2n1 [compound 898, 3-cyclobutyl-1-(4-fluorophenyl)-4-(4-hydroxy[1,4′-bipiperidin]-1′-yl)-1H-pyrazolo[3,4-b]pyridine-6-carboxylic acid] | 393.6% | 3330 nM |  |  | 231.6% | 3240 nM |  | 
5 | CC(C)c1nn(-c2cc(F)cc(F)c2)c2nc(C(=O)O)cc(-c3ccc(N4CCOCC4)cc3)c12 [compound 268, 1-(3,5-difluorophenyl)-4-[4-(morpholin-4-yl)phenyl]-3-(propan-2-yl)-1H-pyrazolo[3,4-b]pyridine-6-carboxylic acid] | 425.68% | 394 nM |  |  |  |  | 251.82% | 616 nM
6 | O=C(O)c1cc(N2CCC(N3CCN(C4CC4)CC3)CC2)c2c(C3CCC3)nn(-c3ccccc3)c2n1 [compound 738, 3-cyclobutyl-4-[4-(4-cyclopropylpiperazin-1-yl)piperidin-1-yl]-1-phenyl-1H-pyrazolo[3,4-b]pyridine-6-carboxylic acid] | 472.1% | 110 nM |  |  | 267.6% | 245 nM |  | 
7 | CC(C)c1nn(-c2cccc(N3CCCC3)c2)c2nc(C(=O)O)cc(-c3ccc(N4CCC(C#N)CC4)nc3)c12 [compound 222, 4-[6-(4-cyanopiperidin-1-yl)pyridin-3-yl]-3-(propan-2-yl)-1-[3-(pyrrolidin-1-yl)phenyl]-1H-pyrazolo[3,4-b]pyridine-6-carboxylic acid] | 612.47% | 268 nM |  |  |  |  | 429.93% | 433 nM
8 | CC(C)Oc1nn(C2CCCCC2)c2nc(C(=O)O)cc(-c3ccc(CN4CC(N(C)C)C4)cc3)c12 [compound 927, 1-cyclohexyl-4-(4-{[3-(dimethylamino)azetidin-1-yl]methyl}phenyl)-3-[(propan-2-yl)oxy]-1H-pyrazolo[3,4-b]pyridine-6-carboxylic acid] | 362.92% | 1100 nM | 150.78% | 1250 nM |  |  |  | 
9 | O=C(O)c1cc(N2CCC(N3CCOCC3)CC2)c2c(C3CCC3)nn(-c3ccc(F)cc3)c2n1 [compound 679, 3-cyclobutyl-1-(4-fluorophenyl)-4-[4-(morpholin-4-yl)piperidin-1-yl]-1H-pyrazolo[3,4-b]pyridine-6-carboxylic acid] | 503.6% | 299 nM |  |  | 279.5% | 370 nM |  | 
10 | CN(C)C[C@@H](F)C1CCN(c2cc(C(=O)O)nc3c2c(C2CCC2)nn3-c2ccccc2)CC1 [compound 456, 3-cyclobutyl-4-{4-[(1S)-2-(dimethylamino)-1-fluoroethyl]piperidin-1-yl}-1-phenyl-1H-pyrazolo[3,4-b]pyridine-6-carboxylic acid] | 414.5% | 335 nM |  |  | 253.65% | 845 nM |  | 
11 | COCC1CCN(c2cc(C(=O)O)nc3c2c(C(C)C)nn3-c2cccc(C)c2)CC1 [compound 227, 4-[4-(methoxymethyl)piperidin-1-yl]-1-(3-methylphenyl)-3-(propan-2-yl)-1H-pyrazolo[3,4-b]pyridine-6-carboxylic acid] | 452.6% | 340 nM |  |  |  |  | 305.45% | 666 nM
12 | N#CC1CCN(c2ccc(-c3cc(C(=O)O)nc4c3c(C3CCC3)nn4C3CCCCC3)cn2)CC1 [compound 220, 4-[6-(4-cyanopiperidin-1-yl)pyridin-3-yl]-3-cyclobutyl-1-cyclohexyl-1H-pyrazolo[3,4-b]pyridine-6-carboxylic acid] | 470.77% | 369 nM |  |  |  |  | 245.37% | 786 nM
13 | CC(C)Oc1cccc(-n2nc(C3CCC3)c3c(N4CCC(N5CCOCC5)CC4)cc(C(=O)O)nc32)n1 [compound 924, 3-cyclobutyl-4-[4-(morpholin-4-yl)piperidin-1-yl]-1-{6-[(propan-2-yl)oxy]pyridin-2-yl}-1H-pyrazolo[3,4-b]pyridine-6-carboxylic acid] | 609.82% | 136 nM | 374.45% | 420 nM |  |  |  | 
14 | O=C(O)c1cc(N2CCC(CCN3CCOCC3)CC2)c2c(C3CCC3)nn(-c3ccc(F)cc3)c2n1 [compound 810, 3-cyclobutyl-1-(4-fluorophenyl)-4-{4-[2-(morpholin-4-yl)ethyl]piperidin-1-yl}-1H-pyrazolo[3,4-b]pyridine-6-carboxylic acid] | 468.7% | 88.4 nM |  |  | 277.6% | 204 nM |  | 
15 | CC(C)c1nn(-c2ccc(F)cc2)c2nc(C(=O)O)cc(N3CCC(CN4CCCCC4)CC3)c12 [compound 790, 1-(4-fluorophenyl)-4-{4-[(piperidin-1-yl)methyl]piperidin-1-yl}-3-(propan-2-yl)-1H-pyrazolo[3,4-b]pyridine-6-carboxylic acid] | 419.1% | 181 nM |  |  | 193.7% | 294 nM |  | 
16 | CC(C)c1nn(-c2cccc(N3CCC3)c2)c2nc(C(=O)O)cc(-c3ccc(N4CCOCC4)cc3)c12 [compound 151, 1-[3-(azetidin-1-yl)phenyl]-4-[4-(morpholin-4-yl)phenyl]-3-(propan-2-yl)-1H-pyrazolo[3,4-b]pyridine-6-carboxylic acid] | 562.6% | 644 nM |  |  |  |  | 322.03% | 354 nM
17 | CO[C@H]1CCC[C@@H](n2nc(C(C)C)c3c(-c4ccc(N5CCOCC5)cc4)cc(C(=O)O)nc32)C1 [compound 205, 1-[(1R,3S)-3-methoxycyclohexyl]-4-[4-(morpholin-4-yl)phenyl]-3-(propan-2-yl)-1H-pyrazolo[3,4-b]pyridine-6-carboxylic acid] | 261.5% | 819 nM |  |  |  |  | 109% | 1110 nM
18 | COC1CCN(C2CCN(c3cc(C(=O)O)nc4c3c(C3CCC3)nn4-c3ccc(F)cc3)CC2)CC1 [compound 892, 3-cyclobutyl-1-(4-fluorophenyl)-4-(4-methoxy[1,4′-bipiperidin]-1′-yl)-1H-pyrazolo[3,4-b]pyridine-6-carboxylic acid] | 428.72% | 602 nM |  |  | 196.44% | 603 nM |  | 
19 | CC(C1CCN(c2cc(C(=O)O)nc3c2c(C2CCC2)nn3-c2ccccc2)CC1)N1CCOCC1 (stereo not shown) [compound 683, 3-cyclobutyl-4-{4-[1-(morpholin-4-yl)ethyl]piperidin-1-yl}-1-phenyl-1H-pyrazolo[3,4-b]pyridine-6-carboxylic acid] | 600.53% | 60.7 nM |  |  | 395.1% | 141 nM |  | 
20 | Cc1cccc(-n2nc(C(C)C)c3c(N4CCC(CO)CC4)cc(C(=O)O)nc32)c1 [compound 213, 4-[4-(hydroxymethyl)piperidin-1-yl]-1-(3-methylphenyl)-3-(propan-2-yl)-1H-pyrazolo[3,4-b]pyridine-6-carboxylic acid] | 456.97% | 382 nM |  |  |  |  | 247.33% | 679 nM
21 | CCOC(=O)N1CCN(c2cc(C(=O)O)nc3c2c(C2CCC2)nn3-c2ccccc2)CC1 [compound 539, 3-cyclobutyl-4-[4-(ethoxycarbonyl)piperazin-1-yl]-1-phenyl-1H-pyrazolo[3,4-b]pyridine-6-carboxylic acid] | 564.8% | 198 nM |  |  | 366.3% | 370 nM |  | 
22 | O=C(O)c1cc(N2CCC(N3CCC(F)CC3)CC2)c2c(C3CCC3)nn(-c3ccc(F)cc3)c2n1 [compound 849, 3-cyclobutyl-4-(4-fluoro[1,4′-bipiperidin]-1′-yl)-1-(4-fluorophenyl)-1H-pyrazolo[3,4-b]pyridine-6-carboxylic acid] | 458.6% | 231 nM |  |  | 249.1% | 660 nM |  | 

Source: US9796711B2, “Substituted pyrazolo[3,4-b]pyridin-6-carboxylic acids and method of use” (AbbVie S.àr.l., priority 2015, dated 2017)
